# From patent US20230146675A1, “PYRIMIDO[5,4-d]PYRIMIDINE DERIVATIVES AS ENT INHIBITORS FOR THE TREATMENT OF CANCERS, AND COMBINATION THEREOF WITH ADENOSINE RECEPTOR ANTAGONISTS” (ITEOS BELGIUM SA, priority 2020, published 2023)
# Target: T1, human ENT1 (Homo sapiens, UniProt Q99808)
# T1 sequence (Q99808 1-456): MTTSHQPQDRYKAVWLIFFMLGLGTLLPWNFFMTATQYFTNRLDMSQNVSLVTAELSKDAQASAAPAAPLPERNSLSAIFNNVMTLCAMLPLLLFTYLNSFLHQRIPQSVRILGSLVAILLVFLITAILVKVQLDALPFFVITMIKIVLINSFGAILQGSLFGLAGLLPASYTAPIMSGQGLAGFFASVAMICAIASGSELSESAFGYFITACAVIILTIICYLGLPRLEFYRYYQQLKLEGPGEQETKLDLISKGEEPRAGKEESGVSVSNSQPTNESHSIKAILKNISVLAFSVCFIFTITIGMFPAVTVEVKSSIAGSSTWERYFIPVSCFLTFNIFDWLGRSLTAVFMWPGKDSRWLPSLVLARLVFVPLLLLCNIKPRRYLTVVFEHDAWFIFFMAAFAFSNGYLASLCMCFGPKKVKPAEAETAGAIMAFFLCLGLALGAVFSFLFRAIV
# Assay: ENT1 binding assay (competition with Sahenta-DY647 on JAR cells)
# Design: JAR cells expressing ENT1 were bought from ATCC; host or cells: JAR cells
# Settings: binned IC50
# Outline: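 JAR cells were incubated with test compounds and the fluorescent ligand Sahenta-DY647 in competition. Plates were washed twice by centrifugation (4 min, 400 rcf, 4 °C). Binding potency was derived from the final fluorescence.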
row,SMILES,IC50 [nM]
1,"COCCN(CCOC)c1nc(N2CCN(c3ccc(C#N)cn3)CC2)c2nc(N(CCOC)CCOC)nc(N3CCC(OC)CC3)c2n1 [Compound 124, 6-(4-(2,6-bis(bis(2-methoxyethyl)amino)-8-(4-methoxypiperidin-1-yl)pyrimido[5,4-d]pyrimidin-4-yl)piperazin-1-yl)nicotinonitrile]",100 to 500
2,"COCCCNc1nc(N(CCOC)CCOC)nc2c(N3CCC(OC)CC3)nc(N(CCOC)CCOC)nc12 [Compound 51, N2,N2,N6,N6-tetrakis(2-methoxyethyl)-8-(4-methoxypiperidin-1-yl)-N4-(3-methoxypropyl)pyrimido[5,4-d]pyrimidine-2,4,6-triamine]",500 to 1000
3,"COCCN(CCOC)c1nc(N2CC(=O)N3CCCC3C2)c2nc(N(CCO)CCO)nc(N3CCC(OC)CC3)c2n1 (centres unmarked) [Compound 314, 2-(6-(bis(2-hydroxyethyl)amino)-2-(bis(2-methoxyethyl)amino)-8-(4-methoxypiperidin-1-yl)pyrimido[5,4-d]pyrimidin-4-yl)hexahydropyrrolo[1,2-a]pyrazin-4(1H)-one]",500 to 1000
4,"COCCN(CCOC)c1nc(N2CCC(OC)CC2)c2nc(N(CCOC)CCOC)nc(OCc3cnn(C(C)C)c3)c2n1 [Compound 164, 4-((1-isopropyl-1H-pyrazol-4-yl)methoxy)-N2,N2,N6,N6-tetrakis(2-methoxyethyl)-8-(4-methoxypiperidin-1-yl)pyrimido[5,4-d]pyrimidine-2,6-diamine]",500 to 1000
5,"CCCN(C)c1nc(N(CCOC)CCOC)nc2c(N3CCn4ncnc4C3)nc(N(CCOC)CCOC)nc12 [Compound 10, 8-(5,6-dihydro-[1,2,4]triazolo[1,5-a]pyrazin-7(8H)-yl)-N2,N2,N6,N6-tetrakis(2-methoxyethyl)-N4-methyl-N4-propylpyrimido[5,4-d]pyrimidine-2,4,6-triamine]",100 to 500
6,"COCCN(CCOC)c1nc(N2CCN(c3ncn(C)n3)CC2)c2nc(N(CCOC)CCOC)nc(NCc3cccc(S(C)(=O)=O)c3)c2n1 [Compound 226, N2,N2,N6,N6-tetrakis(2-methoxyethyl)-8-(4-(1-methyl-1H-1,2,4-triazol-3-yl)piperazin-1-yl)-N4-(3-(methylsulfonyl)benzyl)pyrimido[5,4-d]pyrimidine-2,4,6-triamine]",100 to 500
7,"COCCN(CCOC)c1nc(N2CCC(F)(F)CC2)c2nc(N(CCO)CCO)nc(N3CCC(F)(F)CC3)c2n1 [Compound 19, 2,2′-((6-(bis(2-methoxyethyl)amino)-4,8-bis(4,4-difluoropiperidin-1-yl)pyrimido[5,4-d]pyrimidin-2-yl)azanediyl)diethanol]",100 to 500
8,"COCCN(CCOC)c1nc(N2CCC(OC)CC2)c2nc(NCCn3cccn3)nc(N3CCC(OC)CC3)c2n1 [Compound 32, N2-(2-(1H-pyrazol-1-yl)ethyl)-N6,N6-bis(2-methoxyethyl)-4,8-bis(4-methoxypiperidin-1-yl)pyrimido[5,4-d]pyrimidine-2,6-diamine]",500 to 1000
9,"COCCN(CCOC)c1nc(N2CCC(OC)CC2)c2nc(N(CCOC)CCOC)nc(NCc3cnn(C)c3)c2n1 [Compound 65, N2,N2,N6,N6-tetrakis(2-methoxyethyl)-8-(4-methoxypiperidin-1-yl)-N4-((1-methyl-1H-pyrazol-4-yl)methyl)pyrimido[5,4-d]pyrimidine-2,4,6-triamine]",500 to 1000
10,"COCCN(Cc1cc(OC)c(OC)c(OC)c1)c1nc(N2CCN(C)C(=O)C2)c2nc(N(CCOC)CCOC)nc(N3CCC(OC)CC3)c2n1 [Compound 268, 4-(6-(bis(2-methoxyethyl)amino)-2-((2-methoxyethyl)(3,4,5-trimethoxybenzyl)amino)-8-(4-methoxypiperidin-1-yl)pyrimido[5,4-d]pyrimidin-4-yl)-1-methylpiperazin-2-one]",< 100
11,"COCCN(CCOC)c1nc(N2CCC(OC)CC2)c2nc(N(CCOC)CCOC)nc(N(C)Cc3cccc(OC(F)(F)F)c3)c2n1 [Compound 231, N2,N2,N6,N6-tetrakis(2-methoxyethyl)-8-(4-methoxypiperidin-1-yl)-N4-methyl-N4-(3-(trifluoromethoxy)benzyl)pyrimido[5,4-d]pyrimidine-2,4,6-triamine]",100 to 500
12,"COCCN(CCOC)c1nc(N2CCC(OC)CC2)c2nc(N(CCOC)CCOC)nc(NCc3cc(C)no3)c2n1 [Compound 162, N2,N2,N6,N6-tetrakis(2-methoxyethyl)-8-(4-methoxypiperidin-1-yl)-N4-((3-methylisoxazol-5-yl)methyl)pyrimido[5,4-d]pyrimidine-2,4,6-triamine]",500 to 1000
13,"COCCN(CCOC)c1nc(N2CCCC(OC)C2)c2nc(N(CCOC)CCOC)nc(N3CCC(OC)CC3)c2n1 (centres unmarked) [Compound 96, N2,N2,N6,N6-tetrakis(2-methoxyethyl)-4-(3-methoxypiperidin-1-yl)-8-(4-methoxypiperidin-1-yl)pyrimido[5,4-d]pyrimidine-2,6-diamine]",100 to 500
14,"COCCN(CCOC)c1nc(N2CC(OC)C2)c2nc(N(CCOC)CCOC)nc(N3CCC(OC)CC3)c2n1 [Compound 86, 4-(3-methoxyazetidin-1-yl)-N2,N2,N6,N6-tetrakis(2-methoxyethyl)-8-(4-methoxypiperidin-1-yl)pyrimido[5,4-d]pyrimidine-2,6-diamine]",100 to 500
15,"COCCN(CCOC)c1nc(N2CCN(C)C(=O)C2)c2nc(N(CCOC)CCOC)nc(NCc3cccc(OC(F)(F)F)c3)c2n1 [Compound 210, 4-(2,6-bis(bis(2-methoxyethyl)amino)-8-((3-(trifluoromethoxy)benzyl)amino)pyrimido[5,4-d]pyrimidin-4-yl)-1-methylpiperazin-2-one]",< 100
16,"COC1CCN(c2nc(N(CCO)CCO)nc3c(N4CCN(C)C(=O)C4)nc(N(CCO)CCO)nc23)CC1 [Compound 321, 4-(2,6-bis(bis(2-hydroxyethyl)amino)-8-(4-methoxypiperidin-1-yl)pyrimido[5,4-d]pyrimidin-4-yl)-1-methylpiperazin-2-one]",500 to 1000
17,"COCCN(CCOC)c1nc(N2CCc3cnn(C)c3C2)c2nc(N(CCOC)CCOC)nc(N3CCN(C)C(=O)C3)c2n1 [Compound 266, 4-(2,6-bis(bis(2-methoxyethyl)amino)-8-(1-methyl-1,4,5,7-tetrahydro-6H-pyrazolo[3,4-c]pyridin-6-yl)pyrimido[5,4-d]pyrimidin-4-yl)-1-methylpiperazin-2-one]",< 100
18,"CCCN(CCC)c1nc(N(CCOC)CCOC)nc2c(N3CCC(OC)CC3)nc(N(CCOC)CCOC)nc12 [Compound 165, N2,N2,N6,N6-tetrakis(2-methoxyethyl)-8-(4-methoxypiperidin-1-yl)-N4,N4-dipropylpyrimido[5,4-d]pyrimidine-2,4,6-triamine]",< 100
19,"COCCN(CCOC)c1nc(N2CCN(C)C(=O)C2)c2nc(N(CCO)CCO)nc(N3CCC(OC)CC3)c2n1 [Compound 271, 4-(6-(bis(2-hydroxyethyl)amino)-2-(bis(2-methoxyethyl)amino)-8-(4-methoxypiperidin-1-yl)pyrimido[5,4-d]pyrimidin-4-yl)-1-methylpiperazin-2-one]",500 to 1000
20,"COCCN(CCOC)c1nc(N2CCC(O)C2)c2nc(N(CCOC)CCOC)nc(N3CCC(OC)CC3)c2n1 (centres unmarked) [Compound 94, 1-(2,6-bis(bis(2-methoxyethyl)amino)-8-(4-methoxypiperidin-1-yl)pyrimido[5,4-d]pyrimidin-4-yl)pyrrolidin-3-ol]",500 to 1000
21,"COCCN(CCOC)c1nc(N2CCC(OC)CC2)c2nc(N(CCOC)CCOC)nc(OCc3cccc(Cl)c3)c2n1 [Compound 155, 4-((3-chlorobenzyl)oxy)-N2,N2,N6,N6-tetrakis(2-methoxyethyl)-8-(4-methoxypiperidin-1-yl)pyrimido[5,4-d]pyrimidine-2,6-diamine]",< 100
22,"COCCNc1nc(N(CCOC)CCOC)nc2c(N3CCC(OC)CC3)nc(N(CCOC)CCOC)nc12 [Compound 128, N2,N2,N4,N6,N6-pentakis(2-methoxyethyl)-8-(4-methoxypiperidin-1-yl)pyrimido[5,4-d]pyrimidine-2,4,6-triamine]",500 to 1000
23,"COCCN(CCOC)c1nc(N2CC(O)(C(F)(F)F)C2)c2nc(N(CCOC)CCOC)nc(N3CCN(C)C(=O)C3)c2n1 [Compound 189, 4-(2,6-bis(bis(2-methoxyethyl)amino)-8-(3-hydroxy-3-(trifluoromethyl)azetidin-1-yl)pyrimido[5,4-d]pyrimidin-4-yl)-1-methylpiperazin-2-one]",100 to 500
24,"COCCN(CCOC)c1nc(N2CCC(OC)CC2)c2nc(N(CCOC)CCOC)nc(NCCc3ccncc3)c2n1 [Compound 64, N2,N2,N6,N6-tetrakis(2-methoxyethyl)-8-(4-methoxypiperidin-1-yl)-N4-(2-(pyridin-4-yl)ethyl)pyrimido[5,4-d]pyrimidine-2,4,6-triamine]",100 to 500
25,"COCCN(CCOC)c1nc(N2CCN(c3ncn(C)n3)CC2)c2nc(N(CCOC)CCOC)nc(NCc3cccc(Cl)c3)c2n1 [Compound 221, N4-(3-chlorobenzyl)-N2,N2,N6,N6-tetrakis(2-methoxyethyl)-8-(4-(1-methyl-1H-1,2,4-triazol-3-yl)piperazin-1-yl)pyrimido[5,4-d]pyrimidine-2,4,6-triamine]",< 100
26,"CCOC(=O)N1CCN(c2nc(N3CCC(OC)CC3)c3nc(N(CCOC)CCOC)nc(N4CCC(OC)CC4)c3n2)CC1 [Compound 31, ethyl 4-(6-(bis(2-methoxyethyl)amino)-4,8-bis(4-methoxypiperidin-1-yl)pyrimido[5,4-d]pyrimidin-2-yl)piperazine-1-carboxylate]",500 to 1000
